Eleven molecules from patent publication US7151180B2, “Potassium channel modulators” (Bristol-Myers Squibb Company, priority 2003, dated 2006) can be followed below.

The subject of data set [1] is cloned mammalian (mSlo or hSlo) BK channels expressed in Xenopus oocytes. The data set is described as follows: Assay for BK channel openers: two-electrode voltage clamp of BK-mediated outward current in Xenopus oocytes. The class given is cell-based. The conditions noted are these: at 20 μM; percent increase over BK current in controls; voltage step to +140 mV; 5–10 oocytes. As for the experimental part:
The ability of the compounds of the invention to open BK channels and increase whole-cell outward (K^+) BK-mediated currents was assessed under voltage-clamp conditions by determining their ability to increase cloned mammalian (mSlo or hSlo) BK-mediated outward current heterologously expressed in Xenopus oocytes [Butler, A., et al., Science 1993, 261, 221–224; Dworetzky, S. I., et al., Mol. Brain Res. 1994, 27, 189–193; Gribkoff, V. K., et al., Mol. Phannacol. 1996, 50, 206–217]. The two BK constructs employed represent nearly structurally identical homologous proteins, and have proven to be pharmacologically indistinguishable in our tests. To isolate BK current from native (background, non-BK) current, the specific and potent BK channel-blocking toxin iberiotoxin (IBTX) [Galvez, A., et al., J. Biol. Chem. 1990, 265, 11083–11090] was employed at a supramaximal concentration, e.g., 50–100 nanomolar (“nM”). The relative contribution of BK channel-mediated current to total outward current was determined by subtraction of the current remaining in the presence of IBTX (non-BK current) from the current profiles obtained in all other experimental conditions (control, drug, and wash) [Gribkoff, V. K. et al., Mol. Pharmacol. 1996, 50, 206–217]. […] All compounds were tested in 5–10 oocytes and are reported at the indicated concentration of 20 micromolar (“μM”) (or as otherwise indicated); the effect of the selected compounds of the invention on BK current was expressed as the percent of control IBTX-sensitive current at a single transmembrane voltage (+140 mV) and is listed in Table 1.Recordings were accomplished using standard two-electrode voltage clamp techniques [Stuhmer, W., et al., Methods in Enzymology, 1992, 207, 319–339]; voltage-clamp protocols consisted of 500–750 milliseconds (“ms”) duration step depolarizations, from a holding potential of −60 mV, to a final voltage up to +140 mV in 20 mV steps. The experimental media (modified Barth's solution) consisted of millimolar (“mM”): NaCl (88), NaHCO3 (2.4), KCl (1.0), HEPES (10), MgSO4 (0.82), Ca(NO3)2 (0.33), CaCl2 (0.41); pH 7.5.

In data set [2] the test system is rabbit corpus cavernosum tissue. As to the kind of experiment: Relaxation of rabbit corpus cavernosum strips (phenylephrine-induced force). The conditions noted are these: Oryctolagus cuniculus, inhibition of phenylephrine (3 μM)-induced force compared to vehicle control, read-out: % Inhibition of force (RCC strips). As to the method: The ability of the compounds of the invention to relax rabbit corpus cavernosum tissue as a model for the treatment of erectile dysfunction is described as follows. New Zealand white rabbits (3.4–3.7 kg) were euthanized by sodium pentobarbital (100 mg/kg) overdose. The penis from each animal was rapidly removed and immersed in a cold oxygenated modified Krebs Henseleit bicarbonate buffer. The penis' outer tunica was removed and the corpus cavernosum smooth muscle obtained and cut into strips approximately 3–5 mm long. The strips were suspended in tissue baths containing physiological salt solution (see above), and allowed to equilibrate for at least one hour under resting tension of 1.0 gram. Isometric force was measured as described above. Tissue strips were stimulated with the α-agonist phenylephrine (3 μM) and allowed to reach a steady level of force prior to the addition of test compounds. The results are expressed as the percentage inhibition of phenylephrine-induced force as compared to vehicle control.

For data set [3], the system named is rat small intestine tissue. As to the kind of experiment: Relaxation of rat small intestine (ileum) strips (nifedipine-sensitive force). To be noted: integral of nifedipine-sensitive force, 30 min post-compound. From the text:
The ability of the compounds of the invention to relax rat small intestine tissue as a model for the treatment of irritable bowel syndrome is described as follows. Male rats (Harlan, Sprague Dawley, 250–350 g) were sacrificed by decapitation. A portion of small intestine (ileum) was removed and the attached connective tissues and intestinal contents removed. The ileum was cut into segments of ≦1 cm in length. The segments were mounted longitudinally between fixed hooks in organ baths containing warm (37° C.) physiological salt solution (composition in mM: NaCl 118.4,KCl 4.7,KH2PO4 1.2,MgSO4 1.2,CaCl2 1.8,Glucose 10.1, NaHCO3 25; gassed with 95% O2/5% CO2, pH 7.4). A stable tension of ˜1.5 g was maintained in the tissue segments during the equilibration period of 45 minutes. Changes in muscle tension were measured with isometric force transducers (Grass, FT-03C) and recorded using AcqKnowledge data acquisition system (AcqKnowledge for MP100WS, Biopac Systems Inc., Goleta, Calif.). Compound or vehicle was added in the baths for 30 minutes. “Zero” active force was established at the end of the experiment using nifedipine (20 μM). The effects of compounds or vehicle on force was determined by measuring the integral of nifedipine-sensitive force (including resting tone and spontaneous contractions) pre- and 30 min post-compound (or vehicle) addition. Results are expressed as the percentage inhibition of force. DMSO vehicle inhibited force (integral) by −0.6±3.0% (n=25).

In general, inhibition refers to the percentage by which the read-out fell short of the control. The term melting point denotes the temperature, or range, at which the solid turns liquid.

As to `Nc1ccc(Sc2c(-c3cc(Cl)ccc3O)c3cc(C(F)(F)F)ccc3[nH]c2=O)cc1` [Example 1, 3-[(4-Aminophenyl)thio]-4-(5-chloro-2-hydroxyphenyl)-6-(trifluoromethyl)-2(1H)-quinolinone], the “% MaxiK opening” value in data set [1] was found to be 392%. Besides, the inhibition in data set [2] came out at 27%. Also, the “% Inhibition of force (RSI strips)” value in data set [3] is given as 10%.

With `Cn1c(=O)c(Sc2ccc(N)cc2)c(-c2cc(Cl)ccc2O)c2cc(C(F)(F)F)ccc21` [Example 2, 3-[(4-Aminophenyl)thio]-4-(5-chloro-2-hydroxyphenyl)-1-methyl-6-(trifluoromethyl)-2(1H)-quinolinone], the “% MaxiK opening” value in data set [1] is 144%. In addition, the inhibition in data set [2] amounted to 7%.

The molecule `O=c1[nH]c2ccc(C(F)(F)F)cc2c(-c2cc(Cl)ccc2O)c1Sc1ncccn1` [Example 3, 4-(5-Chloro-2-hydroxy-phenyl)-3-(pyrimidin-2-ylsulfanyl)-6-trifluoromethyl-1H-quinolin-2-one] had a melting point of 302 to 303 °C. Besides, the “% MaxiK opening” value in data set [1] amounted to 144%.

The molecule `O=c1[nH]c2ccc(C(F)(F)F)cc2c(-c2cc(Cl)ccc2O)c1Sc1ccncc1` [Example 4, 4-(5-Chloro-2-hydroxy-phenyl)-3-(pyridin-4-ylsulfanyl)-6-trifluoromethyl-1H-quinolin-2-one] displayed a melting point of 257 to 260 °C. Moreover, the “% MaxiK opening” value in data set [1] is 206%. Moreover, the inhibition in data set [2] was 36%. The “% Inhibition of force (RSI strips)” value in data set [3] is recorded as 17%.

With `Cn1cnnc1Sc1c(-c2cc(Cl)ccc2O)c2cc(C(F)(F)F)ccc2[nH]c1=O` [Example 5, 4-(5-Chloro-2-hydroxy-phenyl)-3-(4-methyl-4H-[1,2,4]triazol-3-ylsulfanyl)-6-trifluoromethyl-4a,8a-dihydro-1H-quinolin-2-one], the “% MaxiK opening” value in data set [1] stood at 167%. In addition, the inhibition in data set [2] worked out at 35%.

The molecule `O=c1[nH]c2ccc(C(F)(F)F)cc2c(-c2cc(Cl)ccc2O)c1Sc1ccc(O)cc1` [Example 6, 4-(5-Chloro-2-hydroxyphenyl)-3-(4-hydroxyphenylsulfanyl)-6-trifluoromethyl-1H-quinolin-2-one] displayed a melting point of 180 to 190 °C. Also, the “% MaxiK opening” value in data set [1] came to 307%. In addition, the inhibition in data set [2] is 8%. In addition, the “% Inhibition of force (RSI strips)” value in data set [3] amounted to 21%.

In turn, `Nc1nnc(Sc2c(-c3cc(Cl)ccc3O)c3cc(C(F)(F)F)ccc3[nH]c2=O)s1` [Example 7, 3-(5-Amino-[1,3,4]thiadiazol-2-ylsulfanyl)-4-(5-chloro-2-hydroxyphenyl)-6-trifluoromethyl-1H-quinolin-2-one] yielded a melting point of 260 to 270 °C. Moreover, the “% MaxiK opening” value in data set [1] was 237%. In addition, in data set [2], the inhibition was found to be 45%. In addition, in data set [3], the “% Inhibition of force (RSI strips)” value is listed as 40%.

In turn, `O=c1[nH]c2ccc(C(F)(F)F)cc2c(-c2cc(Cl)ccc2O)c1SCc1ccc(O)cc1` [Example 8, 4-(5-Chloro-2-hydroxyphenyl)-3-(4-hydroxybenzylsulfanyl)-6-trifluoromethyl-1H-quinolin-2-one] showed a melting point of 206 to 208 °C. Also, the “% MaxiK opening” value in data set [1] was determined as 227%. Besides, the inhibition in data set [2] turned out to be 33%.

Turning to `O=c1[nH]c2ccc(C(F)(F)F)cc2c(-c2cc(Cl)ccc2O)c1Sc1ccccc1O` [Example 9, 4-(5-Chloro-2-hydroxyphenyl)-3-(2-hydroxyphenylsulfanyl)-6-trifluoromethyl-1H-quinolin-2-one], the melting point was 290 to 292 °C. Moreover, the “% MaxiK opening” value in data set [1] was 145%.

Regarding `O=C(O)c1ccc(Sc2c(-c3cc(Cl)ccc3O)c3cc(C(F)(F)F)ccc3[nH]c2=O)cc1` [Example 10, 4-[4-(5-Chloro-2-hydroxy-phenyl)-2-oxo-6-trifluoromethyl-1,2-dihydro-quinolin-3-ylsulfanyl]-benzoic acid], the “% MaxiK opening” value in data set [1] is listed as 209%. In addition, in data set [2], the inhibition is 29%.

As for `COc1ccc(Cl)cc1-c1c(Sc2ccc(C(=O)O)cc2)c(=O)[nH]c2ccc(C(F)(F)F)cc12` [Example 11, 4-[4-(5-Chloro-2-methoxy-phenyl)-2-oxo-6-trifluoromethyl-1,2-dihydro-quinolin-3-ylsulfanyl]-benzoic acid], in data set [1], the “% MaxiK opening” value came out at 177%.
